14 compounds from patent publication US9708368B2, “Linear peptide antibiotics” (priority 2012, dated 2017) can be followed below.

The subject of experiment [1] is Escherichia coli strain MC4100 IMP-4213, which harbors an LptD mutation. To be noted: Method B; E. coli MC4100 IMP-4213 (LptD mutation); 35° C., 22 hours. The procedure, abridged: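 Two-fold serial dilutions of compound inoculated at final OD600 0.0005, incubated static at 35 °C for 22 h, and growth read visually.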
For experiment [2], the system named is methicillin resistant Staphylococcus aureus (MRSA) strain USA300 (NRS384). To be noted: Method B, 35° C., 22 hours.
Experiment [3] concerns the target S. aureus SPase (Staphylococcus aureus, UniProt P0A070). As to the kind of experiment: biochemical.
Experiment [4] has as its target E. coli SPase (Escherichia coli, UniProt P00803). In words: Biochemical SPase activity assay (fluorogenic peptide substrate), E. coli enzyme.

Converted amounts (≈) assume the structure as drawn. Square brackets hold non-standard residues; d marks the D form. Peptide text beside a SMILES is read from it. * marks the point of attachment. ξ: configuration not given here. Biphenylcarbonyl(4'-Bu) = CCCCc1ccc(-c2ccc(C(=O)*)cc2)cc1; X1 = C[C@H](N*)B1OC2C[C@@H]3C[C@@H](C3(C)C)[C@]2(C)O1; NMeY = CN[C@@H](Cc1ccc(O)cc1)C(=O)O; NMeT = CN[C@H](C(=O)O)[C@@H](C)O; NMeE = CN[C@@H](CCC(=O)O)C(=O)O; NMeK = CN[C@@H](CCCCN)C(=O)O; NMeV = CN[C@H](C(=O)O)C(C)C; boroAla = C[C@H](N*)B(O)O; Ac3c = NC1(C(=O)O)CC1; ξOrn = NCCCC(N)C(=O)O; βAla = NCCC(=O)O

Broadly, the IC50 is the point on the concentration scale where inhibition reaches its midpoint. A low value points to higher potency.

Sequence of E. coli SPase (P00803 whole entry): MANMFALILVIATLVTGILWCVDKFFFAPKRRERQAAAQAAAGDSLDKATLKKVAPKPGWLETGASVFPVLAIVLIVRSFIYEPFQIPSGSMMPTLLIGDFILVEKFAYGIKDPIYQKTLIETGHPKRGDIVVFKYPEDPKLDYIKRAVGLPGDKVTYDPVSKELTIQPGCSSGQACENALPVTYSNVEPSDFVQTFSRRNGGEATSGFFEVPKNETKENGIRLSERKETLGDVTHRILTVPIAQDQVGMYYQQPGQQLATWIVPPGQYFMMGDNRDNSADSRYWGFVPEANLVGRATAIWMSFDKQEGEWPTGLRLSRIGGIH
Sequence of S. aureus SPase (P0A070 whole entry): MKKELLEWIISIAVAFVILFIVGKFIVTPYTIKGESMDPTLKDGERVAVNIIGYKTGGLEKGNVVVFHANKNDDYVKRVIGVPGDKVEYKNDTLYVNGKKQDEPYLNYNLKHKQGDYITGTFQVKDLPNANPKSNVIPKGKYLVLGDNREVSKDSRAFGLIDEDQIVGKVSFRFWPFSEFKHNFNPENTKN

On to `CCCCc1ccc(-c2ccc(C(=O)NCCC(=O)N[C@@H](CCCCN)C(=O)N[C@@H](Cc3ccc(O)cc3)C(=O)N[C@@H](C)C(=O)N[C@@H](CCCCN)C(=O)N[C@@H](C)B(O)O)cc2)cc1` [Compound 215] ({Biphenylcarbonyl(4'-Bu)-βAla}-KYAK-boroAla), for which the “MIC (μg/mL) E. coli” value in experiment [1] turned out to be 4 µg/mL (≈ 4.51 µM). Moreover, in experiment [2], the “MIC (μg/mL) S. aureus” value turned out to be 0.5 µg/mL (≈ 0.564 µM). The IC50 was 17 nM in experiment [3] and 77 nM in experiment [4].
For the compound `CCCCc1ccc(-c2ccc(C(=O)NCCC(=O)N[C@@H](CCCCN)C(=O)N[C@@H](CCC(N)=O)C(=O)N[C@@H](C)C(=O)N[C@@H](CCCCN)C(=O)N[C@@H](C)B3OC4C[C@@H]5C[C@@H](C5(C)C)[C@]4(C)O3)cc2)cc1` (some centres unmarked) [Compound 216] ({Biphenylcarbonyl(4'-Bu)-βAla}-KQAK-X1), the “MIC (μg/mL) E. coli” value in experiment [1] stood at 4 µg/mL (≈ 4.06 µM). The “MIC (μg/mL) S. aureus” value in experiment [2] was determined as 0.21 µg/mL (≈ 0.213 µM). Also, the IC50 in experiment [3] amounted to 4.1 nM; in experiment [4] it was 29 nM.
For `CCCCc1ccc(-c2ccc(C(=O)NCCC(=O)N[C@@H](CCCCN)C(=O)NC(CCCN)C(=O)N[C@@H](C)C(=O)N[C@@H](CC(C)C)C(=O)N[C@@H](C)B3OC4C[C@@H]5C[C@@H](C5(C)C)[C@]4(C)O3)cc2)cc1` (some centres unmarked) [Compound 217] ({Biphenylcarbonyl(4'-Bu)-βAla}-K[ξOrn]AL-X1), the “MIC (μg/mL) E. coli” value in experiment [1] was determined as 1.6 µg/mL (≈ 1.67 µM). For the same compound, in experiment [2], the “MIC (μg/mL) S. aureus” value was 0.35 µg/mL (≈ 0.366 µM). Also, the figures for the IC50 in experiment [3] and in experiment [4] were 14 nM and 15 nM, respectively.
`CCCCc1ccc(-c2ccc(C(=O)NCCC(=O)N[C@@H](CCCCN)C(=O)N[C@@H](CCCCN)C(=O)N[C@@H](C)C(=O)N[C@@H](CC(C)C)C(=O)N[C@@H](C)B3OC4C[C@@H]5C[C@@H](C5(C)C)[C@]4(C)O3)cc2)cc1` (some centres unmarked) [Compound 218] ({Biphenylcarbonyl(4'-Bu)-βAla}-KKAL-X1): in experiment [1], the “MIC (μg/mL) E. coli” value is 1.3 µg/mL (≈ 1.34 µM). In experiment [2], the “MIC (μg/mL) S. aureus” value turned out to be 0.5 µg/mL (≈ 0.515 µM). The figures for the IC50 in experiment [3] and in experiment [4] were 13 nM and 6.9 nM, respectively.
On the same counts, the results for `CCCCc1ccc(-c2ccc(C(=O)NCCC(=O)N[C@@H](CCCCN)C(=O)N[C@H](C(=O)N[C@@H](C)C(=O)NC3(C(=O)N[C@@H](C)B4OC5C[C@@H]6C[C@@H](C6(C)C)[C@]5(C)O4)CC3)[C@@H](C)O)cc2)cc1` (some centres unmarked) [Compound 219] ({Biphenylcarbonyl(4'-Bu)-βAla}-KTA[Ac3c]-X1) are 64 µg/mL (≈ 70 µM), 5 µg/mL (≈ 5.47 µM), 46 nM and 560 nM.
Take `CCCCc1ccc(-c2ccc(C(=O)NCCC(=O)N[C@@H](CCCCN)C(=O)N3CCC[C@H]3C(=O)N[C@@H](C)C(=O)N[C@@H](CC(N)=O)C(=O)N[C@@H](C)B(O)O)cc2)cc1` [Compound 220] ({Biphenylcarbonyl(4'-Bu)-βAla}-KPAN-boroAla): the “MIC (μg/mL) E. coli” value in experiment [1] was determined as 4 µg/mL (≈ 4.96 µM). The “MIC (μg/mL) S. aureus” value in experiment [2] is 0.5 µg/mL (≈ 0.62 µM). Moreover, the IC50 in experiment [3] worked out at 7 nM; in experiment [4], 36 nM.
For `CCCCc1ccc(-c2ccc(C(=O)NCCC(=O)N[C@@H](CCCCN)C(=O)N3CCC[C@H]3C(=O)N[C@@H](C)C(=O)N[C@@H](CCCCN)C(=O)N[C@@H](C)B(O)O)cc2)cc1` [Compound 221] ({Biphenylcarbonyl(4'-Bu)-βAla}-KPAK-boroAla), in that order: 8 µg/mL (≈ 9.75 µM), 1 µg/mL (≈ 1.22 µM), 130 nM and 62 nM.
With `CCCCc1ccc(-c2ccc(C(=O)NCCC(=O)N[C@@H](CCCCN)C(=O)N[C@@H](CCCCN)C(=O)N[C@@H](C)C(=O)N[C@@H](CCCCN)C(=O)N[C@@H](C)B(O)O)cc2)cc1` [Compound 224] ({Biphenylcarbonyl(4'-Bu)-βAla}-KKAK-boroAla), the “MIC (μg/mL) E. coli” value in experiment [1] was 2.8 µg/mL (≈ 3.29 µM). In addition, in experiment [2], the “MIC (μg/mL) S. aureus” value was 0.13 µg/mL (≈ 0.153 µM). In addition, the IC50 in experiment [3] worked out at 12 nM; in experiment [4], 55 nM.
Regarding `CCCCc1ccc(-c2ccc(C(=O)NCCC(=O)N[C@@H](CCCCN)C(=O)N[C@H](C(=O)N[C@@H](C)C(=O)N[C@@H](Cc3ccc(O)cc3)C(=O)N[C@@H](C)B3OC4C[C@@H]5C[C@@H](C5(C)C)[C@]4(C)O3)[C@@H](C)O)cc2)cc1` (some centres unmarked) [Compound 225] ({Biphenylcarbonyl(4'-Bu)-βAla}-KTAY-X1), the “MIC (μg/mL) E. coli” value in experiment [1] is 2 µg/mL (≈ 2.01 µM). Besides, the “MIC (μg/mL) S. aureus” value in experiment [2] worked out at 0.57 µg/mL (≈ 0.573 µM). In addition, the half-inhibitory concentration (IC50) in experiment [3] was 4 nM; in experiment [4], 7.1 nM.
As for `CCCCc1ccc(-c2ccc(C(=O)N[C@H](CO)C(=O)N[C@H](C)C(=O)NCC(=O)N(C)[C@H](C(=O)N[C@@H](C)C(=O)N[C@@H](CC(N)=O)C(=O)N[C@@H](C)B3OC4C[C@@H]5C[C@@H](C5(C)C)[C@]4(C)O3)[C@@H](C)O)cc2)cc1` (some centres unmarked) [Compound 226] ({Biphenylcarbonyl(4'-Bu)}-[dS][dA]G[NMeT]AN-X1), in experiment [1], the “MIC (μg/mL) E. coli” value turned out to be 25 µg/mL (≈ 25.6 µM). In experiment [2], the “MIC (μg/mL) S. aureus” value was determined as 2.8 µg/mL (≈ 2.87 µM). Further, the half-inhibitory concentration (IC50) in experiment [3] turned out to be 140 nM; in experiment [4], 440 nM.
As for `CCCCc1ccc(-c2ccc(C(=O)N[C@H](CO)C(=O)N[C@H](C)C(=O)NCC(=O)N(C)[C@@H](Cc3ccc(O)cc3)C(=O)N[C@@H](C)C(=O)N[C@@H](CC(N)=O)C(=O)N[C@@H](C)B3OC4C[C@@H]5C[C@@H](C5(C)C)[C@]4(C)O3)cc2)cc1` (some centres unmarked) [Compound 227] ({Biphenylcarbonyl(4'-Bu)}-[dS][dA]G[NMeY]AN-X1), the “MIC (μg/mL) E. coli” value in experiment [1] turned out to be 13 µg/mL (≈ 12.5 µM). For the same compound, the “MIC (μg/mL) S. aureus” value in experiment [2] turned out to be 8 µg/mL (≈ 7.71 µM). Moreover, the results for the IC50 in experiment [3] and in experiment [4] were 850 nM and 550 nM, respectively.
On the same counts, the results for `CCCCc1ccc(-c2ccc(C(=O)N[C@H](CO)C(=O)N[C@H](C)C(=O)NCC(=O)N(C)[C@@H](CCCCN)C(=O)N[C@@H](C)C(=O)N[C@@H](CC(N)=O)C(=O)N[C@@H](C)B3OC4C[C@@H]5C[C@@H](C5(C)C)[C@]4(C)O3)cc2)cc1` (some centres unmarked) [Compound 228] ({Biphenylcarbonyl(4'-Bu)}-[dS][dA]G[NMeK]AN-X1) are 2.8 µg/mL (≈ 2.79 µM), 5.7 µg/mL (≈ 5.69 µM), 270 nM and 360 nM.
For `CCCCc1ccc(-c2ccc(C(=O)N[C@H](CO)C(=O)N[C@H](C)C(=O)NCC(=O)N(C)[C@@H](CCC(=O)O)C(=O)N[C@@H](C)C(=O)N[C@@H](CC(N)=O)C(=O)N[C@@H](C)B3OC4C[C@@H]5C[C@@H](C5(C)C)[C@]4(C)O3)cc2)cc1` (some centres unmarked) [Compound 229] ({Biphenylcarbonyl(4'-Bu)}-[dS][dA]G[NMeE]AN-X1), in that order: 32 µg/mL (≈ 31.9 µM), 64 µg/mL (≈ 63.8 µM), 220 nM and 290 nM.
Consider `CCCCc1ccc(-c2ccc(C(=O)N[C@H](CO)C(=O)N[C@H](C)C(=O)NCC(=O)N(C)[C@H](C(=O)N[C@@H](C)C(=O)N[C@@H](CC(N)=O)C(=O)N[C@@H](C)B3OC4C[C@@H]5C[C@@H](C5(C)C)[C@]4(C)O3)C(C)C)cc2)cc1` (some centres unmarked) [Compound 230] ({Biphenylcarbonyl(4'-Bu)}-[dS][dA]G[NMeV]AN-X1), for which, in experiment [1], the “MIC (μg/mL) E. coli” value was 20 µg/mL (≈ 20.6 µM). In addition, in experiment [2], the “MIC (μg/mL) S. aureus” value is 2 µg/mL (≈ 2.06 µM). The IC50 stood at 150 nM in experiment [3] and 390 nM in experiment [4].
